Data as given in patent US20060040312A1 (priority 1999, published 2006).

Key:
[1] = system: primary cultures of cortex
[2] = target: F425G Shaker mutation (Drosophila melanogaster, UniProt P08510, F425G); conditions: cited from earlier work
[3] = target: Shaker H4 potassium channel (Drosophila melanogaster, UniProt P08510); conditions: cited from earlier work
[4] = system: histamine-contracted, isolated Guinea pig tracheal segments
[5] = system: cardiac myocytes; assay type: cell-based, rat
[6] = system: primary cultures of cortex; assay type: cell-based, rat
[7] = system: cortical cells
[8] = system: primary cortical cultures

Shaker H4 potassium channel, sequence (P08510 whole entry): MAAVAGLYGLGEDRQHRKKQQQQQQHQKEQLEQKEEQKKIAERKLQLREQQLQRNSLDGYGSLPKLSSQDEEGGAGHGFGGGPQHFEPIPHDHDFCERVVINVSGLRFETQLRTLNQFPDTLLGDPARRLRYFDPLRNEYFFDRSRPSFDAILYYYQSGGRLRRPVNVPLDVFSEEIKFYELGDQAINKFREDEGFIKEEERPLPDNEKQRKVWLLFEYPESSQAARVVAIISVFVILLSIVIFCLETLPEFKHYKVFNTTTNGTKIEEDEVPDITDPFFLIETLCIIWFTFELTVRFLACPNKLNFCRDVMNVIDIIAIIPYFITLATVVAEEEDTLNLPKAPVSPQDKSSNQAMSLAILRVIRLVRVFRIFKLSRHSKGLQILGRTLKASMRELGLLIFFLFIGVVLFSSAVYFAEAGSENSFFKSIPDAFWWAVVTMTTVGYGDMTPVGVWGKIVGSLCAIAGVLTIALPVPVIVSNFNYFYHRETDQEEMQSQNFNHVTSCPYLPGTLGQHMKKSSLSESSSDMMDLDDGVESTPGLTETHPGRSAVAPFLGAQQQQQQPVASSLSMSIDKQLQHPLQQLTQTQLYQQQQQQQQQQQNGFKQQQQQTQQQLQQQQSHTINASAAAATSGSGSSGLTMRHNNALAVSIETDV
F425G Shaker mutation, sequence (P08510 whole entry F425G): as the sequence (P08510 whole entry) above, with F425G counted along it

In the case of Nc1ccncc1 [4-AP, 4-aminopyridine], the “effect of K+ channel antagonist on the hyperpolarization seen with 100 nM κ-PVIIA” value [1] is reported as “without any detectable effect”.

For “Iberiotoxin (QFTDVDCSVSKECWSVCKDLFGVDRGKCMGKKCRCYQ; UniProt P24663 1-37, looked up) [IBTX]”, the “effect of K+ channel antagonist on the hyperpolarization seen with 100 nM κ-PVIIA” value [1] was “without any detectable effect”.

For charybdotoxin [reference compound], the “effect of F425G Shaker mutation on toxin affinity / sensitivity” value [2] is given as “increases charybdotoxin affinity by three orders of magnitude” and the “block / inhibition of the Shaker channel” value [3] is given as “inhibit”.

In the case of COc1ccc(Cl)cc1C(=O)NCCc1ccc(S(=O)(=O)NC(=O)NC2CCCCC2)cc1 [Glibenclamide], the “effect of KATP channel antagonist on the κ-PVIIA response” value [4] is reported as “reduce effects of κ-PVIIA”, the “sensitivity of κ-PVIIA-evoked currents to KATP antagonist” value [5] is reported as “sensitive” and the “effect of KATP antagonist on the κ-PVIIA induced hyperpolarization” value [1] is reported as “significant reductions”.

For CCCCNC(=O)NS(=O)(=O)c1ccc(C)cc1 [Tolbutamide], the “effect of KATP channel antagonist on the κ-PVIIA response” value [4] was “reduce effects of κ-PVIIA”, the “sensitivity of κ-PVIIA-evoked currents to KATP antagonist” value [6] was “sensitive” and the “effect of KATP antagonist on κ-PVIIA protection against glutamate cytotoxicity” value [7] was “blocked”. For the same molecule, the “effect of KATP antagonist on the κ-PVIIA induced hyperpolarization” value [1] was “significant reductions” and the “inhibition of the κ-PVIIA (100 nM) response” value [1] was “inhibition”.

With Triton [reference compound] the “increase in fluorescence (Enzchek protease-sensitive dye)” value [8] was roughly 14%.
